According to patent US11345700B2, “Methods of preparing inhibitors of influenza viruses replication” (priority 2013, dated 2022):

Tested on: influenza A strains
Assay: microbe, parasite or virus in culture
Assay type: cell-based
Conditions: H3N2, MDCK, read-out: Cell Protection Assay EC50 ± SD, A/Texas/12/2007, H3N2, amantadine resistance (phenotypic), oseltamivir carboxylate resistance NA 119V

O=C(O)[C@H]1[C@H]2CC[C@H](CC2)[C@@H]1Nc1nc(-c2c[nH]c3ncc(F)cc23)ncc1F [Compound (1)]
EC50: 0.65 ± 0.22 nM
